Assay results from paper PMC7343746, “(2S, 4R)-4-[^18F]Fluoroglutamine for In vivo PET Imaging of Glioma Xenografts in Mice: an Evaluation of Multiple Pharmacokinetic Models” (Molecular Imaging and Biology, 2020).
Values joined by “and” are separate entries in the source; they are usually repeats but may differ in a detail not shown here. Identical values can stand only once.

Tests used:
[1] = tested on: patient-derived BT3 glioma cells; test: 2-Compartment model, orthotopic model; type: in vivo, BALB/cOlaHsd-Foxn1^nu mouse
Experimental: (§1) Image analysis was performed using CARIMAS software published and freely distributed by the Turku PET Center (http://turkupetcentre.fi/carimas/). CT scans were used as rough anatomical reference while tumor regions of interest (ROI) were hand-drawn based upon observed spikes of radioactivity in the PET images at locations correlating with recorded tumor grafts. Control muscle ROIs were drawn on the side opposite to the tumor in the leg flank muscle (based on CT) while the blood ROI was drawn based upon heart anatomical location and observed PET image radioactivity spike during the initial 20 s of imaging in the left ventricle. Standardized uptake values (SUV) were calculated with respect to ROI volume, mean and max tumor radioactivity, total injected radioactivity dose (corrected for tail, cannula, and syringe residual radioactivity), and animal weight, and were additionally presented as tumor-to-background ratio (TBR, tumor-to-healthy brain region for intracranial gliomas and tumor-to-muscle for subcutaneous gliomas) as defined by recent glioma research literature standards. Mean and maximum TBR values were reported as ROI radioactivity per volume divided by mean background radioactivity per volume. The blood radioactivity SUV and gender-specific metabolite-corrected blood radioactivity SUV were then applied to multiple pharmacokinetic models to characterize the flux of the tracer (further described in the “Modeling” section).
(§2) Using the heart’s left ventricle ROI from the PET data as an uncorrected radioactivity level input and the bioavailable parent-tracer fraction (results: Eqs. 3 and 4 applied to the uncorrected input) as the corrected input, multiple models were investigated to characterize the tissue uptake dynamics. Two-compartment modeling and Logan, Patlak, and Yokoi plots were used to separately model the pharmacokinetics for the gliomas (both subcutaneous and orthotopic loci) and their respective control tissues (healthy muscle and healthy brain, respectively). Where indicated, means plus/minus standard deviations are reported. Difference in parameters for uncorrected versus correct and target tissue versus their respective control regions were tested with students’ paired t tests with P values lower than 0.05 being considered significant.

[2] = tested on: patient-derived BT3 glioma cells; test: Logan plot (reversible uptake model), orthotopic model; type: in vivo, BALB/cOlaHsd-Foxn1^nu mouse; conditions: for Logan DV (AB) distribution volume / Logan Ic (AB) y intercept: AB input; for Logan DV (PC) distribution volume / Logan IC (PC) y intercept: PC input
Experimental: as §1, §2

[3] = tested on: patient-derived BT3 glioma cells; test: In vivo PET imaging of orthotopic glioma xenografts; set-up: species or system BALB/cOlaHsd-Foxn1^nu mouse; conditions: for PET TBRmean: orthotopic glioma
Excerpt: The intracranial glioma model was made by injecting female BALB/cOlaHsd-Foxn1^nu (athymic nude, Institute of Animal Genetics, Edinburgh, UK) mice with patient-derived BT3 glioma cells labeled with luciferase into the frontal right hemisphere of the brain at 9 weeks old. Tumors were monitored for growth via in vivo bioluminescence detection and subjects PET imaged after 12 days.
One to two mice were imaged at a time while under 2 % isoflurane anesthesia with an Inveon multimodality small animal PET/CT scanner (Siemens Medical Solutions, Munich, Germany) commencing with an attenuation CT scan to correct the PET scan data. Ten to twelve megabequerels of the tracer was injected into the tail vein, and the subject(s) were imaged over a 60-min period in list mode dividing framing into 6 × 10 s, 4 × 60 s, 5 × 300 s, 3 × 600 s. Obtained sinograms were reconstructed using the ordered-subset expectation maximization 2-dimensional algorithm to obtain the final PET images and back-corrected for radionuclide decay.
Image analysis was performed using CARIMAS software published and freely distributed by the Turku PET Center (http://turkupetcentre.fi/carimas/). CT scans were used as rough anatomical reference while tumor regions of interest (ROI) were hand-drawn based upon observed spikes of radioactivity in the PET images at locations correlating with recorded tumor grafts. Control muscle ROIs were drawn on the side opposite to the tumor in the leg flank muscle (based on CT) while the blood ROI was drawn based upon heart anatomical location and observed PET image radioactivity spike during the initial 20 s of imaging in the left ventricle. […] Mean and maximum TBR values were reported as ROI radioactivity per volume divided by mean background radioactivity per volume. The blood radioactivity SUV and gender-specific metabolite-corrected blood radioactivity SUV were then applied to multiple pharmacokinetic models to characterize the flux of the tracer (further described in the “Modeling” section).

[4] = Subject A brain (control), arterial blood input
[5] = Subject A brain (control), plasma-corrected input
[6] = Subject A glioma max., arterial blood input
[7] = Subject A glioma max., plasma-corrected input
[8] = Subject A o.t. glioma, arterial blood input
[9] = Subject A o.t. glioma, plasma-corrected input
[10] = Subject B brain (control), arterial blood input
[11] = Subject B brain (control), plasma-corrected input
[12] = Subject B glioma max., arterial blood input
[13] = Subject B glioma max., plasma-corrected input
[14] = Subject B o.t. glioma, arterial blood input
[15] = Subject B o.t. glioma, plasma-corrected input

2-Compartment K1 [1, 4]: 0.015 mL min-1 mL-1
2-Compartment K1/k2 [1, 4]: 0.143 mL mL-1
2-Compartment Vb [1, 4]: 7.82%
2-Compartment k3 [1, 4]: 0.032 min⁻¹
2-Compartment k3*K1/k2 [1, 4]: 0.005
2-Compartment k3/(k2+k3) [1, 4]: 0.235
2-Compartment K1 [1, 5]: 0.016 mL min-1 mL-1
2-Compartment K1/k2 [1, 5]: 0.210 mL mL-1
2-Compartment Vb [1, 5]: 7.77%
2-Compartment k3 [1, 5]: 0.051 min⁻¹
2-Compartment k3*K1/k2 [1, 5]: 0.011
2-Compartment k3/(k2+k3) [1, 5]: 0.396
2-Compartment K1 [1, 6]: 0.149 mL min-1 mL-1
2-Compartment K1/k2 [1, 6]: 1.169 mL mL-1
2-Compartment Vb [1, 6]: 20%
2-Compartment k3 [1, 6]: 0.015 min⁻¹
2-Compartment k3*K1/k2 [1, 6]: 0.018
2-Compartment k3/(k2+k3) [1, 6]: 0.105
2-Compartment K1 [1, 7]: 0.156 mL min-1 mL-1
2-Compartment K1/k2 [1, 7]: 1.769 mL mL-1
2-Compartment Vb [1, 7]: 20%
2-Compartment k3 [1, 7]: 0.023 min⁻¹
2-Compartment k3*K1/k2 [1, 7]: 0.041
2-Compartment k3/(k2+k3) [1, 7]: 0.208
2-Compartment K1 [1, 8]: 0.116 mL min-1 mL-1
2-Compartment K1/k2 [1, 8]: 0.919 mL mL-1
2-Compartment Vb [1, 8]: 11.5%
2-Compartment k3 [1, 8]: 0.018 min⁻¹
2-Compartment k3*K1/k2 [1, 8]: 0.016
2-Compartment k3/(k2+k3) [1, 8]: 0.122
2-Compartment K1 [1, 9]: 0.123 mL min-1 mL-1
2-Compartment K1/k2 [1, 9]: 1.373 mL mL-1
2-Compartment Vb [1, 9]: 11.6%
2-Compartment k3 [1, 9]: 0.027 min⁻¹
2-Compartment k3*K1/k2 [1, 9]: 0.038
2-Compartment k3/(k2+k3) [1, 9]: 0.234
2-Compartment K1 [1, 10]: 0.017 mL min-1 mL-1
2-Compartment K1/k2 [1, 10]: 0.127 mL mL-1
2-Compartment Vb [1, 10]: 5.5%
2-Compartment k3 [1, 10]: 0.031 min⁻¹
2-Compartment k3*K1/k2 [1, 10]: 0.004
2-Compartment k3/(k2+k3) [1, 10]: 0.186
2-Compartment K1 [1, 11]: 0.018 mL min-1 mL-1
2-Compartment K1/k2 [1, 11]: 0.168 mL mL-1
2-Compartment Vb [1, 11]: 5.52%
2-Compartment k3 [1, 11]: 0.051 min⁻¹
2-Compartment k3*K1/k2 [1, 11]: 0.009
2-Compartment k3/(k2+k3) [1, 11]: 0.318
2-Compartment K1 [1, 12]: 0.102 mL min-1 mL-1
2-Compartment K1/k2 [1, 12]: 0.447 mL mL-1
2-Compartment Vb [1, 12]: 13.3%
2-Compartment k3 [1, 12]: 0.036 min⁻¹
2-Compartment k3*K1/k2 [1, 12]: 0.016
2-Compartment k3/(k2+k3) [1, 12]: 0.137
2-Compartment K1 [1, 13]: 0.111 mL min-1 mL-1
2-Compartment K1/k2 [1, 13]: 0.515 mL mL-1
2-Compartment Vb [1, 13]: 13.4%
2-Compartment k3 [1, 13]: 0.062 min⁻¹
2-Compartment k3*K1/k2 [1, 13]: 0.032
2-Compartment k3/(k2+k3) [1, 13]: 0.224
2-Compartment K1 [1, 14]: 0.061 mL min-1 mL-1
2-Compartment K1/k2 [1, 14]: 0.536 mL mL-1
2-Compartment Vb [1, 14]: 10.2%
2-Compartment k3 [1, 14]: 0.020 min⁻¹
2-Compartment k3*K1/k2 [1, 14]: 0.011
2-Compartment k3/(k2+k3) [1, 14]: 0.150
2-Compartment K1 [1, 15]: 0.063 mL min-1 mL-1
2-Compartment K1/k2 [1, 15]: 0.767 mL mL-1
2-Compartment Vb [1, 15]: 10.5%
2-Compartment k3 [1, 15]: 0.032 min⁻¹
2-Compartment k3*K1/k2 [1, 15]: 0.025
2-Compartment k3/(k2+k3) [1, 15]: 0.280
Logan DV (AB) distribution volume ([2]; Subject A brain (control)): 1.61
Logan Ic (AB) y intercept ([2]; Subject A brain (control)): -14.15
Logan DV (PC) distribution volume ([2]; Subject A brain (control)): 2.97
Logan IC (PC) y intercept ([2]; Subject A brain (control)): -25.16
Logan DV (AB) distribution volume ([2]; Subject A glioma max.): 0.34
Logan Ic (AB) y intercept ([2]; Subject A glioma max.): -18.72
Logan DV (PC) distribution volume ([2]; Subject A glioma max.): 0.67
Logan IC (PC) y intercept ([2]; Subject A glioma max.): -34.83
Logan DV (AB) distribution volume ([2]; Subject A o.t. glioma): 1.51
Logan Ic (AB) y intercept ([2]; Subject A o.t. glioma): -19.69
Logan DV (PC) distribution volume ([2]; Subject A o.t. glioma): 2.97
Logan IC (PC) y intercept ([2]; Subject A o.t. glioma): -36.03
Logan Ic (AB) y intercept ([2]; Subject B brain (control)): -61.91
Logan DV (PC) distribution volume ([2]; Subject B brain (control)): 2.57
Logan IC (PC) y intercept ([2]; Subject B brain (control)): -50.78
Logan DV (AB) distribution volume ([2]; Subject B glioma max.): 1.27
Logan Ic (AB) y intercept ([2]; Subject B glioma max.): -26.85
Logan DV (PC) distribution volume ([2]; Subject B glioma max.): 0.60
Logan IC (PC) y intercept ([2]; Subject B glioma max.): -36.40
Logan DV (AB) distribution volume ([2]; Subject B o.t. glioma): 0.32
Logan Ic (AB) y intercept ([2]; Subject B o.t. glioma): -20.23
Logan DV (PC) distribution volume ([2]; Subject B o.t. glioma): 1.95
Logan IC (PC) y intercept ([2]; Subject B o.t. glioma): -41.27
PET TBRmean ([3]; Subject A): 4.8
PET TBRmean ([3]; Subject B): 3.6
PET image tumor-to-healthy brain region ratio ([3]; orthotopic human glioma xenografts): 3.6 and 4.8
Compound: NC(=O)[C@H]([18F])C[C@H](N)C(=O)O [[^18F]FGln, (2S, 4R)-4-[^18F]fluoroglutamine]
